Measurements: ChEMBL document CHEMBL4251603, “Structure-activity studies on N-Substituted tranylcypromine derivatives lead to selective inhibitors of lysine specific demethylase 1 (LSD1) and potent inducers of leukemic cell differentiation” (Eur J Med Chem, 2018)
The source made the active and inactive calls. The rule behind the calls is not given here.

Legend:
[1] = target: T1, Amine oxidase [flavin-containing] B (Homo sapiens, UniProt P27338); experiment: (§1) Inhibition of MAO-B (unknown origin) at 250 uM using beetle luciferin derived luminogenic substrate preincubated for 15 mins followed by substrate addition measured after 60 mins by MAO-Glo assay relative to control; conditions: 1 h, 250 µM
T1 sequence (P27338 whole entry): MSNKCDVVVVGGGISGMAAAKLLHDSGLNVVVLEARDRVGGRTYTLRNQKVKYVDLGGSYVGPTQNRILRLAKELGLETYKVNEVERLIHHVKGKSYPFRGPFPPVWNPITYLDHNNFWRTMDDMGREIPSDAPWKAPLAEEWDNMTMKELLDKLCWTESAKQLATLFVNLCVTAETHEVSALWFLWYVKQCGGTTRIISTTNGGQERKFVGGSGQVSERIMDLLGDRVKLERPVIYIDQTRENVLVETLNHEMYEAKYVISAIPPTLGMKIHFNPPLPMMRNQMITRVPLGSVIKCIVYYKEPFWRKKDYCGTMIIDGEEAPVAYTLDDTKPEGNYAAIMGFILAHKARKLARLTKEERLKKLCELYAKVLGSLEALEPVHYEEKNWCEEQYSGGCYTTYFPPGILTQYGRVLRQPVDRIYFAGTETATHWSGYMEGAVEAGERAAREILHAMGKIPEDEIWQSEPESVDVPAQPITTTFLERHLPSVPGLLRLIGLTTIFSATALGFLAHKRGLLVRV

[2] = test system: SJRH30; experiment: Induction of cell death in human Rh30 cells at 50 to 100 nM after 72 hrs by propidium iodide/Hoechst 33342 staining based fluorescence microscopic analysis; type: functional
[3] = test system: SJRH30; experiment: Potentiation of JNJ-26481585-induced cell death in human Rh30 cells after 72 hrs by propidium iodide/Hoechst 33342 staining based fluorescence microscopic analysis; type: functional
[4] = target: T2, Amine oxidase [flavin-containing] A (Homo sapiens, UniProt P21397)
T2 sequence (P21397 whole entry): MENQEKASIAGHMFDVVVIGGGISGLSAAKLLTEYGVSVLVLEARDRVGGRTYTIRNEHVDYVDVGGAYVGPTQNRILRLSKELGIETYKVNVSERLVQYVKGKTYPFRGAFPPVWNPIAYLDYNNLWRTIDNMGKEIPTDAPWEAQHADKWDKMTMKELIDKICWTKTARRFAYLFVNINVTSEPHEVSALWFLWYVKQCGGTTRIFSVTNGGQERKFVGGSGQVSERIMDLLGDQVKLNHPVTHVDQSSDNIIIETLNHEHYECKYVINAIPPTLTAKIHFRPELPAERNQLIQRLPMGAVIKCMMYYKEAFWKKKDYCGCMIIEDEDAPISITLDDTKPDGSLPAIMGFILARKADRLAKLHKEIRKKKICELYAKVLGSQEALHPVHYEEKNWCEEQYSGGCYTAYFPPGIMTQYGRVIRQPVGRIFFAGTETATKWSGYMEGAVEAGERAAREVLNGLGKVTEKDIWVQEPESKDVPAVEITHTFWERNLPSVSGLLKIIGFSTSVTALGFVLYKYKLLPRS

[5] = test system: THP-1; experiment: cells; conditions: Homo sapiens, THP-1, 5 min, read-out: INH
[6] = target: Lysine-specific histone demethylase 1A (Homo sapiens, UniProt O60341)
[7] = target: T3, MAO-B (Homo sapiens, UniProt P27338); experiment: as §1; conditions: MAO-B enzyme (unknown origin), probe beetle luciferin derived luminogenic substrate
T3 sequence (P27338 whole entry): T1 sequence (P27338 whole entry)

Structure (SMILES) | inhibition (INH) [1] | Activity [2] | Activity [3] | IC50 [4] [µM] | inhibition at 0.05 µM [5] [%] | IC50 [6] [µM] | inhibition at 1 h, 250 µM [7] [%]
CNS(=O)(=O)c1ccc(CN[C@H]2C[C@@H]2c2ccccc2)cc1 (relative stereo) | Not Active | Active | Active | 17.1 | 80 |  | 
O=C(O)c1ccc(CN2CCC(CN[C@H]3C[C@@H]3c3ccccc3)CC2)cc1 |  | Active | Active |  |  | 1.7 | 
NS(=O)(=O)c1ccc(CN[C@H]2C[C@@H]2c2ccccc2)cc1 (relative stereo) |  | Active | Active | 21.6 | 80 |  | 42
Cc1ccc(-c2ncc(OCC3CCNC3)cc2-c2ccc(C#N)cc2)cc1 (centres undefined) |  |  |  |  |  | 0.09 | 
